According to US4518611A, “2-Furylbutyrolactone modulation of the immune system in mammals” (priority 1983, dated 1985):
Several values for one entry are separate records, joined by “and”; a condition that tells them apart may be missing. Identical values can stand only once. Entries after “also recorded” stand apart in the source; their conditions may differ.

Columns and labels:
spleen lymphocytes [1] = assay: In vitro lymphocyte stimulation assay, C57BL/6 spleen lymphocytes; assay type: cell-based, mouse
Procedure: (§1) The purpose of this assay is to challenge lymphocytes in microcultures with one or more polyclonal mitogens at concentrations that will induce mitogenesis within 72 hours of stimulation.
(§2) In the mouse model, spleens are removed from different strains of mice and the spleen cells are teased free and suspended in RPMI-1640 tissue culture medium at a concentration of usually […]. These cells are dispensed at a concentration of 5.0×10^5 cells per microculture well in a 96 well flat bottom 96 well tissue culture plate. All testing of the compounds of this invention or mitogens are done in replicates of 10. The cells are then treated with PHA, Con-A, specific antigens, or buffer only. If in vitro testing is done, varying concentrations of the compounds of this invention or buffer only are added to the cells as well. After treatment with the mitogens and/or compounds of this invention, the cells are incubated for 72 hours. The response of these cells to mitogens and/or the compounds of this invention is assessed using ^14 C-thymidine labeling on the fourth day at a concentration of 0.01 μCi/well. The labeled cells are harvested using a lymphocyte harvestor and placed onto fibrous paper discs. A scintillation cocktail is added to vials containing the discs and the results are obtained using a LKB-liquid scintillation counter (Model 1216/Rackbeta II). The data is expressed as a ratio of the cpm of the mitogen stimulated group to the control (nonmitogen) treated group=lymphocyte stimulation index (LSI).
(§3) The lymphocyte stimulation assay may be performed directly on spleen cells obtained from various strains of mice not treated with the compounds of this invention or on lymphocytes obtained from human […]. […] Alternatively, the mice may be treated in vivo with the compounds of this invention by intraperitoneal multi-dose schedules, followed by sacrifice and harvesting spleen lymphocytes. These cells are then tested for their response to polyclonal mitogens or specific antigens used to immunize the mice. In this system however, no additional compound is added to the in vitro lymphocyte stimulation assay system.
An in vitro lymphocyte stimulation assay is performed directly on normal spleen lymphocytes removed from five normal C57BL/6 mice, using concentrations of Cpd. […] Following three days of incubation the assay is completed.
An in vitro lymphocyte stimulation assay was performed using spleen lymphocytes from normal C57BL/6 mice. The lymphocytes were treated with either 1, 5, 10, 50 or 100 μg/well of Cpd. 1 or buffer.
Cpd. 2 was tested using normal spleen lymphocytes from C57BL/6 mice. A lymphocyte stimulation assay was conducted using either 1, 5, 10, 50, or 100 μg/well […] or just buffer.
Spleen cells from C57BL/6 mice were treated, in vitro, with the crystallizing reagents, succinic acid and succinimide. Since these compounds are spontaneously released from the molecular complex in solution at a molar ratio of 2 moles of Cpds. 1, 2, or 3 per mole of the crystalline reagent, these reagents were treated in the lymphocyte stimulation assay at proper molar concentrations.
The compound of example 3, Cpd. 3, was used to treat C57BL/6 spleen lymphocytes in vitro. The lymphocytes were treated with either 1, 5, 10, 50, or 100 μg/well of Cpd. 3 or just buffer and then a lymphocyte stimulation assay was performed.

spleen lymphocytes [2] = assay: Lymphocyte stimulation assay after in vivo treatment, C57BL/6 mice; details: for effect on Con-A response (in words) / effect on PHA response (in words) / effect on mitogen response (in words): i.p.; for effect on mitogen response (in words): PHA and Con-A
Procedure: as §1, §2, §3
Two strains of mice, C57BL/6 and BDF1 are treated for seven days with i.p. administration of either 25, 50, 100, 200, or 400 mg/kg of Cpd. 1 or just buffer. This is followed on the eighth day by a lymphocyte stimulation assay.
A comparison is made of the lymphocyte response of C57BL/6 mice treated 4 days with i.p. administration of either 50, 100, 200, 400 or 800 mg/kg of Cpd. 1, 50, 100, 200, 400 or 800 mg/kg of ascorbic acid (AA), or just buffer. This is followed on the fifth day by a lymphocyte stimulation assay.
Two strains of mice, C57BL/6 and BALB/c, are treated 4 days with i.p. administration of either 50, 100, 200, or 400 mg/kg of Cpd. 1, or just buffer. This is followed on the fifth day by a lymphocyte stimulation assay.
C57BL/6 mice were treated with four daily i.p. doses of either 50, 100, 200, or 400 mg/kg of Cpd. 1 or just buffer. On the fifth day a lymphocyte stimulation assay was performed.
Mice of the C57BL/6 strain were tested with i.p. administration of either 100, 200, 400 or 600 mg/kg of Cpd. 1 or just buffer. This was followed by removal of spleens and treatment of lymphocytes therein with mitogens PHA and Con-A.
The compound of Example 2, Cpd. 2, was tested in vivo by using C57BL/6 mice and treating them with […] or just buffer for four consecutive days by the i.p. route. On the fifth day a lymphocyte stimulation assay was performed.

[3] = 100 mg/kg i.p., five day administration
[4] = 200 mg/kg i.p., five day administration
[5] = 400 mg/kg i.p., five day administration
[6] = 600 mg/kg i.p., five day administration

2-furylbutyrolactone:succinimide [Cpd. 2]
Lymphocyte Stimulation Index, Con-A (spleen lymphocytes [1]; 1 μg/well): 147 | Lymphocyte Stimulation Index, Control (no mitogen) (spleen lymphocytes [1]; 1 μg/well): .92 | Lymphocyte Stimulation Index, PHA (spleen lymphocytes [1]; 1 μg/well): 25.4 | Lymphocyte Stimulation Index, Con-A (spleen lymphocytes [1]; 5 μg/well): 148 | Lymphocyte Stimulation Index, Control (no mitogen) (spleen lymphocytes [1]; 5 μg/well): 1.2 | Lymphocyte Stimulation Index, PHA (spleen lymphocytes [1]; 5 μg/well): 29.8 | Lymphocyte Stimulation Index, Con-A (spleen lymphocytes [1]; 10 μg/well): 164 | Lymphocyte Stimulation Index, Control (no mitogen) (spleen lymphocytes [1]; 10 μg/well): 1.1 | Lymphocyte Stimulation Index, PHA (spleen lymphocytes [1]; 10 μg/well): 38.8 | Lymphocyte Stimulation Index, Con-A (spleen lymphocytes [1]; 50 μg/well): 218 | Lymphocyte Stimulation Index, Control (no mitogen) (spleen lymphocytes [1]; 50 μg/well): .80 | Lymphocyte Stimulation Index, PHA (spleen lymphocytes [1]; 50 μg/well): 45.8 | Lymphocyte Stimulation Index, Con-A (spleen lymphocytes [1]; 100 μg/well): 144 | Lymphocyte Stimulation Index, Control (no mitogen) (spleen lymphocytes [1]; 100 μg/well): .49 | Lymphocyte Stimulation Index, PHA (spleen lymphocytes [1]; 100 μg/well): 3.83 | effect on Con-A response (in words) (spleen lymphocytes [1]; in vitro, Con-A): the 200 μg/well dose had a stimulatory effect; also recorded: the 400 μg/well doses had an anti-proliferative effect | Lymphocyte Stimulation Index, Con-A (spleen lymphocytes [2]; 50 mg/kg i.p., 4 days): 96.1 | Lymphocyte Stimulation Index, Control (no mitogen) (spleen lymphocytes [2]; 50 mg/kg i.p., 4 days): .88 | Lymphocyte Stimulation Index, PHA (spleen lymphocytes [2]; 50 mg/kg i.p., 4 days): 15.5 | Lymphocyte Stimulation Index, Con-A (spleen lymphocytes [2]; 100 mg/kg i.p., 4 days): 105 | Lymphocyte Stimulation Index, Control (no mitogen) (spleen lymphocytes [2]; 100 mg/kg i.p., 4 days): 1.5 | Lymphocyte Stimulation Index, PHA (spleen lymphocytes [2]; 100 mg/kg i.p., 4 days): 15.4 | Lymphocyte Stimulation Index, Con-A (spleen lymphocytes [2]; 200 mg/kg i.p., 4 days): 99.3 | Lymphocyte Stimulation Index, Control (no mitogen) (spleen lymphocytes [2]; 200 mg/kg i.p., 4 days): .69 | Lymphocyte Stimulation Index, PHA (spleen lymphocytes [2]; 200 mg/kg i.p., 4 days): 11.3 | Lymphocyte Stimulation Index, Con-A (spleen lymphocytes [2]; 400 mg/kg i.p., 4 days): 109 | Lymphocyte Stimulation Index, Control (no mitogen) (spleen lymphocytes [2]; 400 mg/kg i.p., 4 days): 1.3 | Lymphocyte Stimulation Index, PHA (spleen lymphocytes [2]; 400 mg/kg i.p., 4 days): 12.9 | Lymphocyte Stimulation Index, Con-A (spleen lymphocytes [2]; 600 mg/kg i.p., 4 days): 94.0 | Lymphocyte Stimulation Index, Control (no mitogen) (spleen lymphocytes [2]; 600 mg/kg i.p., 4 days): 1.5 | Lymphocyte Stimulation Index, PHA (spleen lymphocytes [2]; 600 mg/kg i.p., 4 days): 15.8 | effect on Con-A response (in words) (spleen lymphocytes [2]; 4 days): only marginal stimulation of Con-A mitogenesis | effect on PHA response (in words) (spleen lymphocytes [2]; 4 days): no effect on PHA mitogenesis

Cc1ccc(C2(O)C(=O)OC3C(O)COC32O)o1.Cc1ccc(C2(O)C(=O)OC3C(O)COC32O)o1.O=C1CCC(=O)O1 (centres unmarked) [Cpd. 1, 2-furylbutyrolactone:succinic anhydride]
Lymphocyte Stimulation Index, Control (no mitogen) (spleen lymphocytes [1]; 5 μg/well): 1.8 | Lymphocyte Stimulation Index, Control (no mitogen) (spleen lymphocytes [1]; 50 μg/well): .20 | Lymphocyte Stimulation Index, Control (no mitogen) (spleen lymphocytes [1]; 100 μg/well): .20 | Lymphocyte Stimulation Index, Control (no mitogen) (spleen lymphocytes [1]; .001 μg/well): 3.8 | Lymphocyte Stimulation Index, Control (no mitogen) (spleen lymphocytes [1]; .01 μg/well): 3.2 | Lymphocyte Stimulation Index, Control (no mitogen) (spleen lymphocytes [1]; .1 μg/well): 3.2 | Lymphocyte Stimulation Index, PHA (spleen lymphocytes [2]; 50 mg/kg i.p., 4 days): 13.6 and 17.0 | Lymphocyte Stimulation Index, Con-A (spleen lymphocytes [2]; 50 mg/kg i.p., 7 days): 26.0 | Lymphocyte Stimulation Index, Control (no mitogen) (spleen lymphocytes [2]; 50 mg/kg i.p., 7 days): 1.0 | Lymphocyte Stimulation Index, Con-A (spleen lymphocytes [2]; 100 mg/kg i.p., 7 days): 40.0 | Lymphocyte Stimulation Index, Control (no mitogen) (spleen lymphocytes [2]; 100 mg/kg i.p., 7 days): 1.3 | Lymphocyte Stimulation Index, PHA (spleen lymphocytes [2]; 100 mg/kg i.p., 7 days): 17.7 | Lymphocyte Stimulation Index, Con-A (spleen lymphocytes [2]; [3]): 43.9 | Lymphocyte Stimulation Index, Control (no mitogen) (spleen lymphocytes [2]; [3]): .80 | Lymphocyte Stimulation Index, PHA (spleen lymphocytes [2]; [3]): 51.1 | Lymphocyte Stimulation Index, PHA (spleen lymphocytes [2]; 200 mg/kg i.p., 4 days): 42.8 and 25.2 and 23.2 | Lymphocyte Stimulation Index, Con-A (spleen lymphocytes [2]; 200 mg/kg i.p., 7 days): 34.0 | Lymphocyte Stimulation Index, Control (no mitogen) (spleen lymphocytes [2]; 200 mg/kg i.p., 7 days): 1.0 | Lymphocyte Stimulation Index, PHA (spleen lymphocytes [2]; 200 mg/kg i.p., 7 days): 21.3 | Lymphocyte Stimulation Index, Con-A (spleen lymphocytes [2]; [4]): 36.6 | Lymphocyte Stimulation Index, Control (no mitogen) (spleen lymphocytes [2]; [4]): .62 | Lymphocyte Stimulation Index, PHA (spleen lymphocytes [2]; [4]): 48.2 | Lymphocyte Stimulation Index, Con-A (spleen lymphocytes [2]; 400 mg/kg i.p., 4 days): 40.0 and 30.9 and 26.4 | Lymphocyte Stimulation Index, Con-A (spleen lymphocytes [2]; 400 mg/kg i.p., 7 days): 20.7 | Lymphocyte Stimulation Index, Control (no mitogen) (spleen lymphocytes [2]; 400 mg/kg i.p., 7 days): 1.0 | Lymphocyte Stimulation Index, PHA (spleen lymphocytes [2]; 400 mg/kg i.p., 7 days): 3.2 | Lymphocyte Stimulation Index, Con-A (spleen lymphocytes [2]; [5]): 42.4 | Lymphocyte Stimulation Index, Control (no mitogen) (spleen lymphocytes [2]; [5]): .49 | Lymphocyte Stimulation Index, PHA (spleen lymphocytes [2]; [5]): 44.9 | Lymphocyte Stimulation Index, Con-A (spleen lymphocytes [2]; [6]): 26.5 | Lymphocyte Stimulation Index, Control (no mitogen) (spleen lymphocytes [2]; [6]): 1.7 | Lymphocyte Stimulation Index, PHA (spleen lymphocytes [2]; [6]): 17.6 | evidence of toxicity (spleen lymphocytes [2]; 600 mg/kg, five day administration): no evidence of toxicity | Lymphocyte Stimulation Index, Con-A (spleen lymphocytes [2]; 800 mg/kg i.p., 4 days): .612 | Lymphocyte Stimulation Index, Control (no mitogen) (spleen lymphocytes [2]; 800 mg/kg i.p., 4 days): .31 | Lymphocyte Stimulation Index, PHA (spleen lymphocytes [2]; 800 mg/kg i.p., 4 days): .408 | effect on Con-A response (in words) (spleen lymphocytes [2]; 4 days): doses ranging from 50 to 200 mg/kg have a significant stimulatory effect; also recorded: doses ranging from 400 to 800 mg/kg have a significant anti-proliferative effect | effect on PHA response (in words) (spleen lymphocytes [2]; 4 days): doses of 100 and 200 mg/kg of Cpd. 1 tend to stimulate lymphocyte DNA synthesis; also recorded: Doses ranging from 400 to 800 suppress DNA synthesis of spleen lymphocytes; also recorded: a decrease in the response to PHA at the 400 mg/kg dose when compared to the response at the 200 mg/kg dose | effect on mitogen response (in words) (spleen lymphocytes [2]; 7 days): strong suppression of the PHA response in the C57BL/6 mice; also recorded: a suppression of the Con-A response in C57BL/6 mice when compared to the 200 mg/kg dose; also recorded: at a dose of 200 mg/kg in C57BL/6 mice; also recorded: in the C57BL/6 strain, it is increased at doses of 50, 100 and 200 mg/kg | effect on mitogen response (in words) (spleen lymphocytes [2]; five day administration): Doses ranging from 100 to 400 mg/kg of Cpd. 1 caused significant stimulation of both the Con-A and PHA treated lymphocytes; also recorded: The high dose, 600 mg/kg, caused less stimulation than the 100 to 400 mg/kg doses and gave levels comparable to controls | effect on mitogen response (in words) (spleen lymphocytes [2]; four daily doses): Stimulation of the response to polyclonal mitogens at doses of Cpd. 1 from 50-400 mg/kg with a maximum response achieved between doses of 100-200 mg/kg
